Experiments:
Assay in all cases: Test C postemergence
Assay type in all cases: in vivo
soybean (Glycine max) = conditions: Glycine max, post-emergence, Postemergence, scale 0 to 100, read-out: Plant response rating, Soybean
Outline: (§1)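 Seeded loam-sand soil (preemergence) or young potted plants of 2-18 cm (postemergence) received test chemical formulated with surfactant in a non-phytotoxic solvent. Pots were kept in the greenhouse for 13-15 days before a visual 0-100 control rating relative to controls.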

kochia (Kochia scoparia) = conditions: Bassia scoparia, post-emergence, Postemergence, scale 0 to 100, read-out: Plant response rating, Kochia
Outline: as §1

[1] = tested on: oilseed rape (Brassica napus); conditions: Brassica napus, post-emergence, Postemergence, scale 0 to 100, read-out: Plant response rating, Oilseed Rape
Outline: as §1

[2] = tested on: morningglory (Ipomoea coccinea); conditions: Ipomoea, post-emergence, 336 h, Postemergence, scale 0 to 100, read-out: Plant response rating, Morningglory
Outline: as §1

[3] = tested on: winter wheat (Triticum aestivum); conditions: Triticum aestivum, post-emergence, 336 h, Postemergence, scale 0 to 100, read-out: Plant response rating, Wheat
Outline: as §1

[4] = tested on: chickweed (common chickweed, Stellaria media); conditions: Stellaria media, post-emergence, Postemergence, scale 0 to 100, read-out: Plant response rating, Chickweed
Outline: as §1

[5] = tested on: velvetleaf (Abutilon theophrasti); conditions: Abutilon theophrasti, post-emergence, Postemergence, scale 0 to 100, read-out: Plant response rating, Velvetleaf
Outline: as §1

corn (Zea mays) = conditions: Zea mays, post-emergence, 336 h, Postemergence, scale 0 to 100
Outline: as §1

[6] = tested on: galium (catchweed bedstraw, Galium aparine); conditions: Galium, post-emergence, 336 h, Postemergence, scale 0 to 100, read-out: Plant response rating, Galium
Outline: as §1

[7] = tested on: johnsongrass (Sorghum halepense); conditions: Sorghum halepense, post-emergence, 336 h, Postemergence, scale 0 to 100, read-out: Plant response rating, Johnsongrass
Outline: as §1

[8] = tested on: large (Lg) crabgrass (Digitaria sanguinalis); conditions: Digitaria sanguinalis, post-emergence, 336 h, Postemergence, scale 0 to 100, read-out: Plant response rating, Crabgrass, Large
Outline: as §1

[9] = tested on: yellow nutsedge (Cyperus esculentus); conditions: Cyperus, post-emergence, 336 h, Postemergence, scale 0 to 100, read-out: Plant response rating, Nutsedge, Yellow
Outline: as §1

[10] = tested on: barnyardgrass (Echinochloa crus-galli); conditions: Echinochloa crus-galli, post-emergence, Postemergence, scale 0 to 100, read-out: Plant response rating, Barnyardgrass
Outline: as §1

[11] = tested on: lambsquarters (Chenopodium album); conditions: Chenopodium album, post-emergence, 336 h, Postemergence, scale 0 to 100, read-out: Plant response rating, Lambsquarters
Outline: as §1

[12] = tested on: blackgrass (Alopecurus myosuroides); conditions: Alopecurus myosuroides, post-emergence, 336 h, Postemergence, scale 0 to 100, read-out: Plant response rating, Blackgrass
Outline: as §1

[13] = tested on: Italian ryegrass (Lolium multiflorum); conditions: Lolium multiflorum, post-emergence, 336 h, Postemergence, scale 0 to 100, read-out: Plant response rating, Ryegrass, Italian
Outline: as §1

[14] = tested on: giant foxtail (Setaria faberii); conditions: Setaria faberi, post-emergence, 336 h, Postemergence, scale 0 to 100, read-out: Plant response rating, Foxtail, Giant
Outline: as §1

[15] = tested on: ragweed (common ragweed, Ambrosia elatior); conditions: Ambrosia artemisiifolia, post-emergence, 336 h, Postemergence, scale 0 to 100, read-out: Plant response rating, Ragweed
Outline: as §1

wild oat (Avena fatua) = conditions: Avena fatua, post-emergence, Postemergence, scale 0 to 100, read-out: Plant response rating, Oat, Wild
Outline: as §1

## N#Cc1cccc(Oc2ncc(Cl)cn2)c1Oc1ccc(Cl)cc1 [Compound 36]
Soybean (Glycine max); 31 g ai/ha
  plant injury at 31 g/ha: 25%
Soybean (Glycine max); 62 g ai/ha
  plant injury at 62 g/ha: 50%
Soybean (Glycine max); 125 g ai/ha
  plant injury at 125 g/ha: 45%
Kochia (Kochia scoparia); 16 g ai/ha
  pest or weed control at 16 g/ha: 90%
Kochia (Kochia scoparia); 31 g ai/ha
  pest or weed control at 31 g/ha: 95%
Kochia (Kochia scoparia); 62 g ai/ha
  pest or weed control at 62 g/ha: 95%
Kochia (Kochia scoparia); 125 g ai/ha
  pest or weed control at 125 g/ha: 100%
[1]; 31 g ai/ha
  plant injury at 31 g/ha: 85%
[1]; 62 g ai/ha
  plant injury at 62 g/ha: 90%
[1]; 125 g ai/ha
  plant injury at 125 g/ha: 98%
[2]; 31 g ai/ha
  pest or weed control at 31 g/ha: 60%
[2]; 62 g ai/ha
  pest or weed control at 62 g/ha: 65%
[2]; 125 g ai/ha
  pest or weed control at 125 g/ha: 70%
[3]; 31 g ai/ha
  plant injury at 31 g/ha: 0%
[3]; 62 g ai/ha
  plant injury at 62 g/ha: 0%
[3]; 125 g ai/ha
  plant injury at 125 g/ha: 5%
[4]; 16 g ai/ha
  pest or weed control at 16 g/ha: 70%
[4]; 31 g ai/ha
  pest or weed control at 31 g/ha: 75%
[4]; 62 g ai/ha
  pest or weed control at 62 g/ha: 80%
[4]; 125 g ai/ha
  pest or weed control at 125 g/ha: 100%
[5]; 31 g ai/ha
  pest or weed control at 31 g/ha: 45%
[5]; 62 g ai/ha
  pest or weed control at 62 g/ha: 70%
[5]; 125 g ai/ha
  pest or weed control at 125 g/ha: 80%
Corn (Zea mays); 16 g ai/ha
  Corn plant response rating (crop injury, 0 = no effect, 100 = complete kill) at 16 g/ha: 10%
Corn (Zea mays); 31 g ai/ha
  Corn plant response rating (crop injury, 0 = no effect, 100 = complete kill) at 31 g/ha: 15%
Corn (Zea mays); 62 g ai/ha
  Corn plant response rating (crop injury, 0 = no effect, 100 = complete kill) at 62 g/ha: 20%
Corn (Zea mays); 125 g ai/ha
  Corn plant response rating (crop injury, 0 = no effect, 100 = complete kill) at 125 g/ha: 20%
[6]; 16 g ai/ha
  pest or weed control at 16 g/ha: 80%
[6]; 31 g ai/ha
  pest or weed control at 31 g/ha: 80%
[6]; 62 g ai/ha
  pest or weed control at 62 g/ha: 95%
[6]; 125 g ai/ha
  pest or weed control at 125 g/ha: 95%
[7]; 16 g ai/ha
  pest or weed control at 16 g/ha: 20%
[7]; 31 g ai/ha
  pest or weed control at 31 g/ha: 30%
[7]; 62 g ai/ha
  pest or weed control at 62 g/ha: 35%
[7]; 125 g ai/ha
  pest or weed control at 125 g/ha: 35%
[8]; 16 g ai/ha
  pest or weed control at 16 g/ha: 5%
[8]; 31 g ai/ha
  pest or weed control at 31 g/ha: 10%
[8]; 62 g ai/ha
  pest or weed control at 62 g/ha: 10%
[8]; 125 g ai/ha
  pest or weed control at 125 g/ha: 20%
[9]; 31 g ai/ha
  pest or weed control at 31 g/ha: 5%
[9]; 62 g ai/ha
  pest or weed control at 62 g/ha: 10%
[9]; 125 g ai/ha
  pest or weed control at 125 g/ha: 15%
[10]; 16 g ai/ha
  pest or weed control at 16 g/ha: 10%
[10]; 31 g ai/ha
  pest or weed control at 31 g/ha: 10%
[10]; 62 g ai/ha
  pest or weed control at 62 g/ha: 15%
[10]; 125 g ai/ha
  pest or weed control at 125 g/ha: 20%
[11]; 16 g ai/ha
  pest or weed control at 16 g/ha: 90%
[11]; 31 g ai/ha
  pest or weed control at 31 g/ha: 95%
[11]; 62 g ai/ha
  pest or weed control at 62 g/ha: 98%
[11]; 125 g ai/ha
  pest or weed control at 125 g/ha: 100%
[12]; 16 g ai/ha
  pest or weed control at 16 g/ha: 5%
[12]; 31 g ai/ha
  pest or weed control at 31 g/ha: 5%
[12]; 62 g ai/ha
  pest or weed control at 62 g/ha: 30%
[12]; 125 g ai/ha
  pest or weed control at 125 g/ha: 30%
[13]; 31 g ai/ha
  pest or weed control at 31 g/ha: 5%
[13]; 62 g ai/ha
  pest or weed control at 62 g/ha: 10%
[13]; 125 g ai/ha
  pest or weed control at 125 g/ha: 30%
[14]; 16 g ai/ha
  pest or weed control at 16 g/ha: 5%
[14]; 31 g ai/ha
  pest or weed control at 31 g/ha: 5%
[14]; 62 g ai/ha
  pest or weed control at 62 g/ha: 10%
[14]; 125 g ai/ha
  pest or weed control at 125 g/ha: 10%
[15]; 31 g ai/ha
  pest or weed control at 31 g/ha: 45%
[15]; 62 g ai/ha
  pest or weed control at 62 g/ha: 40%
[15]; 125 g ai/ha
  pest or weed control at 125 g/ha: 75%
Wild oat (Avena fatua); 31 g ai/ha
  pest or weed control at 31 g/ha: 30%
Wild oat (Avena fatua); 62 g ai/ha
  pest or weed control at 62 g/ha: 20%
Wild oat (Avena fatua); 125 g ai/ha
  pest or weed control at 125 g/ha: 35%

Source: patent publication US20170190671A1, “BIS(ARYL)CATECHOL DERIVATIVES AS HERBICIDES” (E I DU PONT DE NEMOURS AND COMPANY, priority 2014, published 2017)
